Results reported in patent US9877980B2, “Method and composition for treatment or prevention of type 2 diabetes and hyperlipidemia” (Chun-Ching Shih, priority 2016, dated 2018).
Marks after values point to notes of the source that are not given here.

Tests used:
Format in all cases: in vivo
PEPCK = assay: Semi-quantitative RT-PCR of liver mRNA: PEPCK; conditions: HFD mice, 4 weeks, vs HF group
Description: (§1) The following experiment was performed and approved by the guidelines of the Institutional Animal Care and Use Committee of Central Taiwan University of Science and Technology. The 4-week old male C57BL/6J mice (total amount n=63) were purchased from the National Laboratory Animal Breeding and Research Center (Taipei, Taiwan). After acclimatization for one week, all of the mice were divided randomly into the control (CON) group and the high-fat diet (HFD) group. […] After HFD exposure for 8 weeks, the HFD group was further randomly subdivided into 6 groups (n=9 per group) to receive different treatments by oral gavage once daily for four weeks and on HFD. […] The HF+B1, HF+B2, and […] are collectively termed BB-treated HFD groups in the following examples. The CON mice were administered vehicle. After dosing for 4 weeks, the mice were given no food at night and sacrificed after 12 h of fasting on the next day. All of the individual tissues were collected and weighed, and portions were instantly frozen using liquid nitrogen and kept at −80° C. for subsequent target gene analysis. Blood samples (0.8 mL) were collected for analysis of blood parameters.
Total RNA from liver tissue of mice was isolated with a Trizol Reagent (Molecular Research Center, Inc., Cincinnati, Ohio, USA) according to the manufacturer's instructions. The integrity of the extracted total RNA was examined by 2% agarose gel electrophoresis, and the RNA concentration was determined by the ultraviolet (UV) light absorbency at 260 nm and 280 nm (Spectrophotometer U-2800A, Hitachi). The quality of the RNA was confirmed by ethidium bromide staining of 18S and 28S ribosomal RNA after electrophoresis on 2% agarose gel containing 6% formaldehyde.
Levels of mRNA of genes of interest were quantified by semi-quantitative reverse transcription polymerase chain reaction (RT-PCR). […] PCR products were analyzed by 2% agarose gels and stained with ethidium bromide.

hepatocytes of HFD mice = assay: Histology of liver tissue (hepatocellular ballooning); conditions: 4 weeks, grade 0 absence, 1 a few cells
Description: The following experiment was performed and approved by the guidelines of the Institutional Animal Care and Use Committee of Central Taiwan University of Science and Technology. The 4-week old male C57BL/6J mice (total amount n=63) were purchased from the National Laboratory Animal Breeding and Research Center (Taipei, Taiwan). After acclimatization for one week, all of the mice were divided randomly into the control (CON) group and the high-fat diet (HFD) group. For the following 12 weeks, the CON group (n=9) was kept on a low-fat diet (Diet 12450B, Research Diets, Inc., New Brunswick, N.J., USA), while the HFD group (n=54) was exposed to a high-fat diet (Diet 12451, Research Diets, New Brunswick, N.J., USA). The low-fat diet was composed of protein 20%, carbohydrate 70% and fat 10%, whereas the high-fat diet was composed of protein 20%, carbohydrate 35%, and fat 45% (of total energy, % kcal). After HFD exposure for 8 weeks, the HFD group was further randomly subdivided into 6 groups (n=9 per group) to receive different treatments by oral gavage once daily for four weeks and on HFD. […] The HF+B1, HF+B2, and […] are collectively termed BB-treated HFD groups in the following examples. The CON mice were administered vehicle. After dosing for 4 weeks, the mice were given no food at night and sacrificed after 12 h of fasting on the next day. All of the individual tissues were collected and weighed, and portions were instantly frozen using liquid nitrogen and kept at −80° C. for subsequent target gene analysis. Blood samples (0.8 mL) were collected for analysis of blood parameters.
Small pieces of epididymal white adipose tissue and liver tissue were fixed with formalin (200 g/kg) neutral buffered solution and embedded in paraffin. Sections of 8 μm […] were cut and stained with hematoxylin and eosin. For microscopic examination, a microscope (Leica, DM2500) was used, and the images were taken using a Leica Digital Camera (DFC-425-C).
Based on previous report, the designation of histological hepatocellular ballooning findings include grade 0 for absence of degeneration, grade 1 for degeneration in a few cells, and […] for degeneration in many cells.

[1] = tested on: C57BL/6J mice on high-fat diet (HFD); assay: Blood parameters (glucose, insulin, TG, FFA, TC, leptin, adiponectin) in HFD mice; conditions: for Blood parameters Adiponectin / Blood parameters FFA / Blood parameters Leptin / Blood parameters TC / blood level of glucose / blood level of insulin: 4 weeks
Description: as §1
A portion of the blood samples obtained from the retro-orbital sinus of fasted mice were immediately used to measure blood glucose levels using Sidekick glucose analyzer (YSI 1500, YSI Incorporated, Yellow Springs, USA) according to the glucose oxidase method. Heparin (30 units/mL, Sigma) was added into other portions of the blood samples. […] Concentrations of plasma triglycerides (TG), total cholesterol (TC), and free fatty acids (FFA) were determined using commercial assay kits according to the manufacturer's instructions (Triglycerides-E test, Cholesterol-E test, and FFA-C test, Wako Pure Chemical, Osaka, Japan). Plasma insulin, leptin, and adiponectin levels were assessed using commercial assay kits according to the manufacturer's instructions (mouse insulin ELISA kit, Mercodia, Uppsala, Sweden; mouse leptin ELISA kit, Morinaga, Yokohama, Japan; Mouse Adiponectin ELISA kit, Crystal Chem International, Downers Grove, Ill., USA).

[2] = 10 mg/kg/day oral gavage, vs HF group
[3] = 20 mg/kg/day oral gavage, vs HF group
[4] = 40 mg/kg/day oral gavage, vs HF group

## OCC1O[C@@H](O[C@@H]2Cc3c(O)cc(O)cc3O[C@@H]2c2ccc(O)c(O)c2)C(O)C(O)[C@@H]1O (single isomer, unassigned; (-)) [compound of formula I, (−)-epicatechin-3-O-β-D-allopyranoside]
PEPCK; 10 mg/kg/day oral gavage
  liver mRNA level of PEPCK: significantly reduced
PEPCK; 20 mg/kg/day oral gavage
  liver mRNA level of PEPCK: significantly reduced
PEPCK; 40 mg/kg/day oral gavage
  liver mRNA level of PEPCK: significantly reduced
Hepatocytes of HFD mice; 10 mg/kg/day oral gavage
  hepatocellular ballooning mean score: 0.7±0.1
Hepatocytes of HFD mice; 20 mg/kg/day oral gavage
  hepatocellular ballooning mean score: 0.5±0.2
Hepatocytes of HFD mice; 40 mg/kg/day oral gavage
  hepatocellular ballooning mean score: 0.4±0.1
[1]; 10 mg/kg/day oral gavage
  Blood parameters Adiponectin: 2.895 ± 0.010^f μg/mL
  Blood parameters FFA: 1.11 ± 0.13^d mEq/L
  Blood parameters Leptin: 1.662 ± 0.009^f ng/mL
  Blood parameters TC: 153.5 ± 7.7 mg/dL
[1]; [2]
  blood level of glucose: markedly lowered
  blood level of insulin: markedly lowered
[1]; 20 mg/kg/day oral gavage
  Blood parameters Adiponectin: 3.277 ± 0.052^f μg/mL
  Blood parameters FFA: 0.95 ± 0.04^f mEq/L
  Blood parameters Leptin: 1.372 ± 0.029^f ng/mL
  Blood parameters TC: 144.1 ± 4.0 mg/dL
[1]; [3]
  blood level of glucose: markedly lowered
  blood level of insulin: markedly lowered
[1]; 40 mg/kg/day oral gavage
  Blood parameters Adiponectin: 3.628 ± 0.034^f μg/mL
  Blood parameters FFA: 0.86 ± 0.09^f mEq/L
  Blood parameters Leptin: 1.321 ± 0.008^f ng/mL
  Blood parameters TC: 142.9 ± 6.6 mg/dL
[1]; [4]
  blood level of glucose: markedly lowered
  blood level of insulin: markedly lowered
[1]; oral gavage 4 weeks (formula I 10, 20, 40; Rosi 10; Feno 250 mg/kg/day), vs HF group
  circulating TG levels: decreased
